Experimental findings from the NIST ThermoML archive (doi:10.1016/j.jct.2018.05.018) are described below.

The conditions of this series: 100 kPa, Liquid, Vibrating tube method.

The structures appear in SMILES notation. Numbers after ± are expanded uncertainties.

As usually defined, the mass density is the mass of a sample divided by its volume. For `CCO` [ethanol], the mass density came out at 789.48 ± 1.5 kg/m3 (293.15 K); 785.12 ± 1.5 kg/m3 (298.15 K); 780.86 ± 1.5 kg/m3 (303.15 K); 776.48 ± 1.5 kg/m3 (308.15 K); 772.17 ± 1.5 kg/m3 (313.15 K); 767.6 ± 1.5 kg/m3 (318.15 K). For the same compound, the mass density (323.15 K) amounted to 763.22 ± 1.5 kg/m3.

As to `CO` [methanol], the mass density is given as 791.41 ± 1.5 kg/m3 (293.15 K); 786.65 ± 1.5 kg/m3 (298.15 K); 781.85 ± 1.5 kg/m3 (303.15 K); 776.95 ± 1.5 kg/m3 (308.15 K); 771.97 ± 1.5 kg/m3 (313.15 K).

`CCCO` [propan-1-ol]: the mass density came out at 803.52 ± 1.5 kg/m3 (293.15 K); 799.52 ± 1.5 kg/m3 (298.15 K); 795.5 ± 1.5 kg/m3 (303.15 K); 791.43 ± 1.5 kg/m3 (308.15 K); 787.31 ± 1.5 kg/m3 (313.15 K); 783.11 ± 1.5 kg/m3 (318.15 K). Moreover, the mass density (323.15 K) worked out at 778.79 ± 1.5 kg/m3.
